# Assay results: ChEMBL document CHEMBL1201862, “PubChem BioAssay data set” (2004)
# Active and inactive are the calls of the source.
# How the values were obtained:
# [1] = luciferase reporter signal suppression in cells – H4 neuroglioma cells, luminescence, dose response (AID 1990); type: functional, cell-based
# [2] = Luminescence Cell-Based Dose Response HTS to Identify Inhibitors of 5'UTR Stem-Loop Driven Prion Protein mRNA Translation in H4 Neuroglioblastoma Cells. [Related pubchem assays: 1827 (Project Summary), 1813 (Primary HTS)]; type: functional
# [3] = alpha-synuclein stem-loop luciferase translation blockers – H4 neuroglioma cells, luminescence, confirmation (AID 1988); type: functional, cell-based
# [4] = molecular target: T1, Microphthalmia-associated transcription factor (Homo sapiens, UniProt O75030); assay: reducers of TRPM1 reporter luminescence, concentration series – cell-based, SK-MEL-5, cherry-picked, set 3, MITF inhibitor project, dose response (AID 493073); type: functional;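 note: SK-MEL-5 melanoma cells with luciferase driven by the MITF target TRPM1 promoter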
# T1 sequence (O75030 whole entry): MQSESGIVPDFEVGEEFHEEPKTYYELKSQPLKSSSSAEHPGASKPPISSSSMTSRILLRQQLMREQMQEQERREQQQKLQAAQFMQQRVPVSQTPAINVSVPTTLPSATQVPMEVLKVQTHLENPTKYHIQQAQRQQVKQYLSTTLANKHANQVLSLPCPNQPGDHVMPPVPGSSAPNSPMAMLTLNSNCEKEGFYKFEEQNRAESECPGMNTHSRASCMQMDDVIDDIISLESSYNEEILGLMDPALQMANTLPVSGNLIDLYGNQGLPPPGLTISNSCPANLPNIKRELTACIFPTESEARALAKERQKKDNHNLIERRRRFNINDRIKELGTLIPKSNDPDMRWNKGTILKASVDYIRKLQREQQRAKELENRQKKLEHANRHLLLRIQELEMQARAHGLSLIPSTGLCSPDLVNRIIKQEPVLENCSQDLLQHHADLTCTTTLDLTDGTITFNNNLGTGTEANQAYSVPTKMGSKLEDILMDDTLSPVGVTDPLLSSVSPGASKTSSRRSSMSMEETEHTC
# A-375 [5] = assay: MITF: Counter assay: A375 proliferation Measured in Cell-Based System Using Plate Reader - 2084-03_Inhibitor_Dose_DryPowder_Activity. [Related pubchem assays (depositor defined):AID488944]; type: functional; conditions: Homo sapiens
# A-375 [6] = assay: proliferation inhibition in MITF-low A375 cells – cell-based, cherry-pick samples, set 2, counter-screen for MITF modulator project, dose response (AID 540335); type: functional; conditions: Homo sapiens
# [7] = molecular target: T2, Short transient receptor potential channel 4 (Mus musculus, UniProt Q9QUQ5); assay: calcium entry via TRPC4 opening agents – cell-based, HEK293 TRPC4/mu-opioid, Fluo-4 calcium, dose response (AID 434937); type: functional
# T2 sequence (Q9QUQ5 whole entry): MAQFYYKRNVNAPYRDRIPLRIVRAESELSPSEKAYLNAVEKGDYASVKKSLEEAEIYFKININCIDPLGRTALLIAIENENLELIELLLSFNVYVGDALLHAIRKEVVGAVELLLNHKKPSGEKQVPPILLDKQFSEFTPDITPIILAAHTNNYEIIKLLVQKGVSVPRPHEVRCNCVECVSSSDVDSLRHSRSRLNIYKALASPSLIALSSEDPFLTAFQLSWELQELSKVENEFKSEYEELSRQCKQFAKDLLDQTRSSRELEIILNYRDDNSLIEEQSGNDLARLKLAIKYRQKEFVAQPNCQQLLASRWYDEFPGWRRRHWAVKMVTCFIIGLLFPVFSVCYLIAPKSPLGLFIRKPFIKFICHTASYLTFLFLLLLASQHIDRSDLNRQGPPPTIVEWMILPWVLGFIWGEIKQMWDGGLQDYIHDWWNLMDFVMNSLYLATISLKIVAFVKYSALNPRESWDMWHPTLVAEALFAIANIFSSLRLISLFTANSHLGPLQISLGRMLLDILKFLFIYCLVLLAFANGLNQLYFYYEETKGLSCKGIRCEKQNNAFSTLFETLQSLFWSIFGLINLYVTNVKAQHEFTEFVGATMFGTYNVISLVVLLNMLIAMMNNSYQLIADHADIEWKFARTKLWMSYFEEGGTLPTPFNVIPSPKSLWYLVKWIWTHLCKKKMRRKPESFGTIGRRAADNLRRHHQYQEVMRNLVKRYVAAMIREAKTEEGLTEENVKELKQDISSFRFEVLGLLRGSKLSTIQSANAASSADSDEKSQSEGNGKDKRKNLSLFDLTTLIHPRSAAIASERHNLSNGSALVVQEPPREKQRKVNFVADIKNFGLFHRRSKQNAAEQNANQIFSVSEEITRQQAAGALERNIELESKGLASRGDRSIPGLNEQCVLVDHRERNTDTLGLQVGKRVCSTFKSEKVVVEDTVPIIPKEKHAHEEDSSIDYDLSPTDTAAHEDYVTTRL
# [8] = molecular target: Delta-type opioid receptor (Homo sapiens, UniProt P41143); assay: Counterscreen for agonists of heterodimerization of the mu 1 (OPRM1) and delta 1 (OPRD1) opioid receptors: Luminescence-based cell-based high throughput dose response assay to identify agonists of OPRD1 homodimerization. [Related pubchem assays (depositor defined):AID504326, AID504355, AID504692, AID504904, AID504905]; type: functional
# Mu-type opioid receptor = Mu-type opioid receptor (Homo sapiens, UniProt P35372); assay: Counterscreen for agonists of heterodimerization of the mu 1 (OPRM1) and delta 1 (OPRD1) opioid receptors: Luminescence-based cell-based high throughput dose response assay to identify agonists of OPRM1 homodimerization.; type: functional;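 note: U2OS cells expressing OPRM1 and beta-arrestin as split beta-galactosidase partners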
# [9] = molecular target: Opioid receptors; mu & delta (Homo sapiens, UniProt P41143+P35372); assay: OPRM1-OPRD1 heterodimer agonist potency – cell-based, luminescence, dose response (AID 588407); type: functional
# [10] = molecular target: 5-hydroxytryptamine receptor 5A (Homo sapiens, UniProt P47898); assay: Counterscreen for agonists of OPRM1-OPRD1 heterodimerization: luminescence-based cell-based high throughput dose response assay to identify agonists of 5-hydroxytryptamine (serotonin) 5A receptor (HTR5A). [Related pubchem assays (depositor defined):AID504326, AID504355, AID504692, AID504904, AID504905]; type: functional
# [11] = molecular target: Dual specificity protein kinase CLK1 (Homo sapiens, UniProt P49759); assay: inhibition of human CLK1 activity – biochemical, cherry-picked samples, selectivity assay for Dyrk1A inhibitor project, dose response (AID 588811)
# Hexokinase-1 = Hexokinase-1 (Homo sapiens, UniProt P19367); assay: SAR analysis of small molecule inhibitors of hexokinase domain containing I (HKDC1) in the hexokinase 1 selectivity assay. [Related pubchem assays (depositor defined):AID493160, AID493190]; type: functional
# Hexokinase HKDC1 = Hexokinase HKDC1 (Homo sapiens, UniProt Q2TB90); assay: SAR analysis of small molecule inhibitors of hexokinase domain containing I (HKDC1). [Related pubchem assays (depositor defined):AID493160, AID493190]; type: functional
# [12] = NIH-3T3 fibroblast cytotoxicity, dose response, cytotoxicity control, cell-based, fluorescence, Alamar Blue, secondary assay (AID 2327); type: functional;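 note: NIH-3T3 mouse fibroblasts cultured with fluconazole at 8 µg/mL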
# SUMO-activating enzyme [13] = molecular target: T3, SUMO-activating enzyme (Homo sapiens, UniProt Q9UBT2); assay: blockers of UBC9-mediated SUMO conjugation – biochemical, AlphaScreen, SUMOylation inhibitor project, confirmation (AID 2018); type: functional
# [14] = fluconazole-exposed Candida albicans growth modulators – fluorescence, retest, confirmation (AID 2467); type: functional, cell-based
# SUMO-activating enzyme [15] = molecular target: T3, SUMO-activating enzyme; assay: blockers of SAE1/SAE2–UBC9 SUMO transfer – biochemical, HTRF, uHTS, primary screen (AID 2006); type: protein-complex assay
# [16] = molecular target: Serine/threonine-protein phosphatase (Candida dubliniensis (strain CD36 / CBS 7987 / NCPF 3949 / NRRLY-17841) (Yeast), UniProt B9W6M3); assay: blockers of CaCl2-induced CDRE-lacZ signaling – S. cerevisiae, luminescence, secondary, dose response (AID 2388); type: functional, cell-based;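 note: yeast reporter cells carrying a calcineurin-responsive lacZ construct stimulated with calcium chloride; luminescent beta-galactosidase reporter signal in whole cells rather than isolated phosphatase activity; potency for inhibition where a drop in reporter signal means calcineurin blockade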
# [17] = molecular target: T4, Mannose-6-phosphate isomerase (Homo sapiens, UniProt P34949); assay: MPI inhibition at elevated mannose 6-phosphate – biochemical, fluorescence intensity, high mannose 6-phosphate, primary screen (AID 1220)
# T4 sequence (P34949 whole entry): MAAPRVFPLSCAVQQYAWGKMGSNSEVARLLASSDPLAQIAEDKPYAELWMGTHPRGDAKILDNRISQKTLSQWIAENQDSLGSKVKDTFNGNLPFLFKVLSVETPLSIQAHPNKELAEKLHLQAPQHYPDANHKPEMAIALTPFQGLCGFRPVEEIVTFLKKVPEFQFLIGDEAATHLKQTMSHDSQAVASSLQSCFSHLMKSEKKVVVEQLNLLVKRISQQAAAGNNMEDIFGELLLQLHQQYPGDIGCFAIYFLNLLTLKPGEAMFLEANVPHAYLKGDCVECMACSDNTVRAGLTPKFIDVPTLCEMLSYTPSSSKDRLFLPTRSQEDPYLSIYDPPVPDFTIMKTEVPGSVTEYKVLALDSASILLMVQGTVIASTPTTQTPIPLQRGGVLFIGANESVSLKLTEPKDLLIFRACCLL
# Vero = assay: viability of Vero cells under compound – cytotoxicity control for flavivirus capping enzyme inhibitors (AID 588742); type: functional; conditions: Chlorocebus sabaeus
# [18] = molecular target: ATP-dependent molecular chaperone HSP82 (Candida albicans (strain WO-1) (Yeast), UniProt C4YTQ8); assay: steroid-induced GRE reporter decrease in yeast – S. cerevisiae, luminescence, Hsp90 inhibitor project, dose response (AID 2400); type: functional, cell-based;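 note: beta-galactosidase luminescence from glucocorticoid response element reporter as proxy for Hsp90 function; inhibitor potency where signal loss means Hsp90 inhibition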
# [19] = molecular target: T5, Histone-lysine N-methyltransferase NSD2 (Homo sapiens, UniProt O96028); type: biochemical
# T5 sequence (O96028 whole entry): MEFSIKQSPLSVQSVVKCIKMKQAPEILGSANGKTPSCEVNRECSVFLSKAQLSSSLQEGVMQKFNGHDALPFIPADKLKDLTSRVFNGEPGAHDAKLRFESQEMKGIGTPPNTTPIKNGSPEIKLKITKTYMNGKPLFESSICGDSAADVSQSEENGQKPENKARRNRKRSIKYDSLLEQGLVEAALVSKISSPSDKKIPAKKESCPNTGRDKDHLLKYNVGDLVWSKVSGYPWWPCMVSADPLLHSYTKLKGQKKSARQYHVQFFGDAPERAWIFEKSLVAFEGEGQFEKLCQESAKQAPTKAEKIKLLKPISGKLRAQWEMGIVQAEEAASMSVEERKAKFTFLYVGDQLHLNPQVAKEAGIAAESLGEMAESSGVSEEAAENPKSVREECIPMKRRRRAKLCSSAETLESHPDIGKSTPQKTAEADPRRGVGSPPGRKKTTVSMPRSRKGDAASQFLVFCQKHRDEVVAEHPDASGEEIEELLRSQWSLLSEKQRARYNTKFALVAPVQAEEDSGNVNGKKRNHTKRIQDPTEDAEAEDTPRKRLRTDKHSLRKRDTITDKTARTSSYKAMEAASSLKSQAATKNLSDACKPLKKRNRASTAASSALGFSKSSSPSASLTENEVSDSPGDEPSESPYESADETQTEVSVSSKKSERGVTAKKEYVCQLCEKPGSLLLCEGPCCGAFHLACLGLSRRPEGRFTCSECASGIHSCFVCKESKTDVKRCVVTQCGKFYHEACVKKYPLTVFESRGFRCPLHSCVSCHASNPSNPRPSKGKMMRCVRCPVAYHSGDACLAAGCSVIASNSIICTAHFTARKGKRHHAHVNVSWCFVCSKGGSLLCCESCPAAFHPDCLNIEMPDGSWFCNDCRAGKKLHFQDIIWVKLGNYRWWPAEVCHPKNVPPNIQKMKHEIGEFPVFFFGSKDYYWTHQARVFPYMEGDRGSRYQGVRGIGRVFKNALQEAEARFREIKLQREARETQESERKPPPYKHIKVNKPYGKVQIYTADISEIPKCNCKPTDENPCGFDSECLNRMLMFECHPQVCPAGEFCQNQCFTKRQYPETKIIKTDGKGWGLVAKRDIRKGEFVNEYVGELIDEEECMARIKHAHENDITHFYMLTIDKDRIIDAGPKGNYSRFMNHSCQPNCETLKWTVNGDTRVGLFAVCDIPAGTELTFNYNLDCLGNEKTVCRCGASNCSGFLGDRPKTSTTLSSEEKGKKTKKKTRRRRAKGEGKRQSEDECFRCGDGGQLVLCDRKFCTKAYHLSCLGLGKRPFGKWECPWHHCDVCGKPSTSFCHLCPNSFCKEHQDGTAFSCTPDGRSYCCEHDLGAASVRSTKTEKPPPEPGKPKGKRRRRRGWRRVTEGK
# CAAX prenyl protease 2 [20] = molecular target: CAAX prenyl protease 2 (Saccharomyces cerevisiae S288c, UniProt Q03530); type: biochemical
# CAAX prenyl protease 2 [21] = molecular target: CAAX prenyl protease 2 (Homo sapiens, UniProt Q9Y256); assay: inhibition of Ras-converting CAAX protease Rce1 – biochemical, yeast membranes, quenched-peptide fluorescence, cherry-pick, dose response (AID 588849)
# [22] = molecular target: Voltage-gated inwardly rectifying potassium channel KCNH2 (Homo sapiens, UniProt Q12809); conditions: Potency;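 note: confirmatory quantitative high-throughput screen measuring inhibition of hERG channel activity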
# Chain of Voltage-gated inwardly rectifying potassium channel KCNH2 (Q12809 whole entry): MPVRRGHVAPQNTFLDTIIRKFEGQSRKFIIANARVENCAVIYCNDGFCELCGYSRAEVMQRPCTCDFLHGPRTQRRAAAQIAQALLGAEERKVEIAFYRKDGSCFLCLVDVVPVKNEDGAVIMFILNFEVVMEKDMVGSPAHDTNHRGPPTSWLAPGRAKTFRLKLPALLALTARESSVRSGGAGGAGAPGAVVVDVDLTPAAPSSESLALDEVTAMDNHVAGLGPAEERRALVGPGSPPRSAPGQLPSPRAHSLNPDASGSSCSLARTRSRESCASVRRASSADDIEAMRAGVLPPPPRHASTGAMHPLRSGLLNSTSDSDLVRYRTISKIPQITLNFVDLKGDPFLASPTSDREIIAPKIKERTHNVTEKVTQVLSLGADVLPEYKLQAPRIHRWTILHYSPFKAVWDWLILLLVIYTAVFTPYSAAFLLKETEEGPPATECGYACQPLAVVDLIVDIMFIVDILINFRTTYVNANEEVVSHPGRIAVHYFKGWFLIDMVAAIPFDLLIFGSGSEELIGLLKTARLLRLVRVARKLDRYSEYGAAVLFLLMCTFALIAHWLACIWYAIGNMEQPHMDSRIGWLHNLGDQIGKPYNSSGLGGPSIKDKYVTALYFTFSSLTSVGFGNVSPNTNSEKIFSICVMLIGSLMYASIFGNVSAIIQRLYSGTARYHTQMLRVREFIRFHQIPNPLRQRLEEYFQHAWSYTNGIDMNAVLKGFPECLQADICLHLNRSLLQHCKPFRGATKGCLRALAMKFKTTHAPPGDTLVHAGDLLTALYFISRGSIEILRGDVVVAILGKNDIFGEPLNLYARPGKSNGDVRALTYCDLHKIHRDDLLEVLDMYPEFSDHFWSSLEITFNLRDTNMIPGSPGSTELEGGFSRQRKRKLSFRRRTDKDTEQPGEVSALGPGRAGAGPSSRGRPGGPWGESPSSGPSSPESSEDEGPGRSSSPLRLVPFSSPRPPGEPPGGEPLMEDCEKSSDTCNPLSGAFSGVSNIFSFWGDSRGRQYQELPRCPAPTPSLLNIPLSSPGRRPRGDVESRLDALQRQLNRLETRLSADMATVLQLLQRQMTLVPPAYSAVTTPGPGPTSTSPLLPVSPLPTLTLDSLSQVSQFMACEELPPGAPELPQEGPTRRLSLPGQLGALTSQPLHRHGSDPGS
# T3 sequence (Q9UBE0 whole entry): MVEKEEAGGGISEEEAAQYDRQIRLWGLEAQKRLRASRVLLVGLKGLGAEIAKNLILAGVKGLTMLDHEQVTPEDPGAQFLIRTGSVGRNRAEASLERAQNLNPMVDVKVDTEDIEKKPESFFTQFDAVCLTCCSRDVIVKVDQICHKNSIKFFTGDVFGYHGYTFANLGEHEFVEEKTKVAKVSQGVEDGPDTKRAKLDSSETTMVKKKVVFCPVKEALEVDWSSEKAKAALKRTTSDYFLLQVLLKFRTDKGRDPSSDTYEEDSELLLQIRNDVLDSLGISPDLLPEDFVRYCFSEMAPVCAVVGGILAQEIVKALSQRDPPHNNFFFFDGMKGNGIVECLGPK
# T3 sequence (Q9UBT2 whole entry): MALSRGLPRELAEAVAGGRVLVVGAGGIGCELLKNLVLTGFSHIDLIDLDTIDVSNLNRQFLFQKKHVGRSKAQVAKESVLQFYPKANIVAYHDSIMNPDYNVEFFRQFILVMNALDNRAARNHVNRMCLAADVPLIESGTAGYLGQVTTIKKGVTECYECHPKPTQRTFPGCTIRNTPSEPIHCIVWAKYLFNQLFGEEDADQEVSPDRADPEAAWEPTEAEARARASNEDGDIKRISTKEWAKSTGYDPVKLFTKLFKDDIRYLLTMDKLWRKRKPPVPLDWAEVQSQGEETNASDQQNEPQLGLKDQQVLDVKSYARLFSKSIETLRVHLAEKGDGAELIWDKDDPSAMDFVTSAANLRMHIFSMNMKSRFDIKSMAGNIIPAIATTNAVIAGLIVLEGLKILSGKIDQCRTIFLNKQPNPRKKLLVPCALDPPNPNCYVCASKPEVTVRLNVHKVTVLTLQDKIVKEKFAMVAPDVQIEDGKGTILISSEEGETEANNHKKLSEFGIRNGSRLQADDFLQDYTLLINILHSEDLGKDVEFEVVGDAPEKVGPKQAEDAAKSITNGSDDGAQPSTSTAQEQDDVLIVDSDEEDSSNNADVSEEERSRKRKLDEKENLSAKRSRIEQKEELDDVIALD
# Chain of Hexokinase-1 (P19367 whole entry, the tested form may be a part): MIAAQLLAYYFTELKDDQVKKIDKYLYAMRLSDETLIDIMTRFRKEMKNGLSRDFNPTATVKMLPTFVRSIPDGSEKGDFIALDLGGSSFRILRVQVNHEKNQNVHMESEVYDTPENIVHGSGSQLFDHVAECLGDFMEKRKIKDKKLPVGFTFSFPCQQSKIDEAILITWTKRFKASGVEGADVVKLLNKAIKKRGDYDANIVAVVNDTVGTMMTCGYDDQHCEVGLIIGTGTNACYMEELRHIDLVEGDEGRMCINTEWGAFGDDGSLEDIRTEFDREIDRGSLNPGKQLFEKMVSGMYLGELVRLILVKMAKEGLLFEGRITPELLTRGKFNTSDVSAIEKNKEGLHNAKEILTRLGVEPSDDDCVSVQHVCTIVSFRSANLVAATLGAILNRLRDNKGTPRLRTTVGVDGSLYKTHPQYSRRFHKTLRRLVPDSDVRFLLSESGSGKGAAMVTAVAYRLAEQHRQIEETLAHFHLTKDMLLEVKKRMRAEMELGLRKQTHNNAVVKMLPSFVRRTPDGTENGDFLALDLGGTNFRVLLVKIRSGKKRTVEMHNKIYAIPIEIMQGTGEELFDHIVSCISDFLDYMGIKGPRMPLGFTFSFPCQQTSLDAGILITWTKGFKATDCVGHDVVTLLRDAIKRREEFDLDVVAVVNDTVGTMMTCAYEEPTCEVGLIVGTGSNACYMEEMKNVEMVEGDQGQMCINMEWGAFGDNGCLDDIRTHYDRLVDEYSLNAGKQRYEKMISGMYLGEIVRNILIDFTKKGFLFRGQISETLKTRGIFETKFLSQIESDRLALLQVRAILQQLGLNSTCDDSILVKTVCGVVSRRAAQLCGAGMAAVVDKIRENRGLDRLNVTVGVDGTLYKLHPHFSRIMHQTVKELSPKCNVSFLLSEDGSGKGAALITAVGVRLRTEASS
# Chain of CAAX prenyl protease 2 (Saccharomyces cerevisiae S288c, UniProt Q03530) (Q03530 whole entry): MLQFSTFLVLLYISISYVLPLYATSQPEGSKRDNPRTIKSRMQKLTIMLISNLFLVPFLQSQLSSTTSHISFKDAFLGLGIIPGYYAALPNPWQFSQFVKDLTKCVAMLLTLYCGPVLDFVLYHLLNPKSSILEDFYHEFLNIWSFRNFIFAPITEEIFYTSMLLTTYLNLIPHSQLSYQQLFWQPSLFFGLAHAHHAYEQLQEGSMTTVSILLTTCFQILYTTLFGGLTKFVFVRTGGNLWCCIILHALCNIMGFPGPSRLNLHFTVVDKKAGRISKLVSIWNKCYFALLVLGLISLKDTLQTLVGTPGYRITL
# Chain of Mu-type opioid receptor (P35372 whole entry): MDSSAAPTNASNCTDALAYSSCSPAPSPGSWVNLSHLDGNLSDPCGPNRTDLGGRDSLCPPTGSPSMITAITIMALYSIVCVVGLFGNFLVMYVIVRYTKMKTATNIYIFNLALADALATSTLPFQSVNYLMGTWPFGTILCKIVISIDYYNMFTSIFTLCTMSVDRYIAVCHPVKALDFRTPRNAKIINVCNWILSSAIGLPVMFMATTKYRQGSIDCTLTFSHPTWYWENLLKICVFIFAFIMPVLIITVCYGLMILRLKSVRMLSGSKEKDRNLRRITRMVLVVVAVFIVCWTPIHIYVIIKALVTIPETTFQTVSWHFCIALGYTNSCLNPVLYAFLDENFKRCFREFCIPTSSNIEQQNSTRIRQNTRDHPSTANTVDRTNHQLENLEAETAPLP
# Chain of Serine/threonine-protein phosphatase (B9W6M3 whole entry): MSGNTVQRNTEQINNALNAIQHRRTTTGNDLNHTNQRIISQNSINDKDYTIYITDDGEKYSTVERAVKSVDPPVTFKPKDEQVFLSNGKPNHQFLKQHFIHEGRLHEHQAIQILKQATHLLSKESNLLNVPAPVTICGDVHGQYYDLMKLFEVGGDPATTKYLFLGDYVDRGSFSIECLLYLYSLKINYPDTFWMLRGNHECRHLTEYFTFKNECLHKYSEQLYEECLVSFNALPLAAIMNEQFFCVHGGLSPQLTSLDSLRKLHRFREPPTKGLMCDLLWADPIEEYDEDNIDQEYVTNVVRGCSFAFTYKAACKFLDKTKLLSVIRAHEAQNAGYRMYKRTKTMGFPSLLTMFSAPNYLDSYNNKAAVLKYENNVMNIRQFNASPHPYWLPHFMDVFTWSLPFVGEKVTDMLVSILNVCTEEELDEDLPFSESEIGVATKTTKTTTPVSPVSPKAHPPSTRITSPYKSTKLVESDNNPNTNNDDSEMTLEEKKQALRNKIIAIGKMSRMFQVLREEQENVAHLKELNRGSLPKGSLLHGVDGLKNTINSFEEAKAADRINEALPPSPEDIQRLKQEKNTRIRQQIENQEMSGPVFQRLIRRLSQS
# Chain of Delta-type opioid receptor (P41143 whole entry): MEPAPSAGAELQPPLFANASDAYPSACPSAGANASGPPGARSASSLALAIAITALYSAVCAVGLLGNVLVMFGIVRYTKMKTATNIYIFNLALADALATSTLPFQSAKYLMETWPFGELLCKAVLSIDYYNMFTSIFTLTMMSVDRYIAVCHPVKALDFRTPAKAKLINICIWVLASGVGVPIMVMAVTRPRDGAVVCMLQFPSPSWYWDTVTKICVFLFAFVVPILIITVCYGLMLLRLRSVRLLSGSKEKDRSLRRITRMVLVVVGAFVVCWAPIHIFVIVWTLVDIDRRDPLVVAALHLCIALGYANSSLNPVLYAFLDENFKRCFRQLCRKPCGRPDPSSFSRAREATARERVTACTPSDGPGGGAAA
structure (smiles),measurement,setting,value
CC(=O)c1ccc(S(=O)(=O)N2CCN(C(=O)/C=C/c3ccc4ccccc4n3)CC2)cc1,EC50,[1],13.4 µM (active)
same,EC50,[2],11.8 µM (active)
same,EC50,[3],10.3 µM (active)
same,AC50,[4],12 µM (active)
same,AC50,A-375 [5],> 35 µM (active)
same,AC50,A-375 [6],> 35 µM (active)
CN(C)CCCN(C(=O)c1ccc(S(=O)(=O)N(C)C2CCCCC2)cc1)c1nc2ccc(F)cc2s1.Cl,EC50,[7],1.88 µM (active)
same,EC50,[8],69.2 µM (inactive)
same,EC50,Mu-type opioid receptor,4.85 µM (active)
same,EC50,[9],> 0.3805 µM
same,EC50,[10],> 92.5 µM (inactive)
Clc1ccc(CNc2nccc(-c3ccc4c(c3)OCCO4)n2)cc1Cl,AC50,[11],0.0206 µM (active)
Cc1ccc(S(=O)(=O)Nc2cc(SCCC(=O)O)c(O)c3ccccc23)cc1,IC50,Hexokinase-1,> 80 µM (inactive)
same,IC50,Hexokinase HKDC1,10 µM (active)
CN(C)c1cc(N/N=C/c2ccc(Cl)cc2)nc(N(C)C)n1,EC50,[12],> 160 µM (inactive)
same,IC50,SUMO-activating enzyme [13],1 µM (active)
same,EC50,[14],0.401 µM (active)
same,IC50,SUMO-activating enzyme [15],14.2 µM (active)
same,EC50,[16],> 180 µM (inactive)
same,IC50,[17],> 50 µM (not active)
same,CC50,Vero,> 40 µM (active)
same,EC50,[18],> 160 µM (inactive)
same,AC50,[19],6.18 µM (active)
CC1Oc2ccccc2C=C1/C=N/NC(=O)[C@@H](C)NC(=O)OC(C)(C)C (stereo partly specified),AC50,CAAX prenyl protease 2 [20],57 µM (active)
same,AC50,CAAX prenyl protease 2 [21],23.1 µM (active)
COC(=O)c1c(-c2cc(OC)c(OC)c(OC)c2)c2ccc(OCc3ccccn3)cc2c(=O)n1-c1ccc(N)cc1,AC50,[22],5.62 µM (inconclusive)
